According to ChEMBL document CHEMBL5724914, “Linking interpersonal differences in gut microbiota composition and drug biotransformation activity” (2024):

What was measured:
[1] = (§1) The drug is tested on Z-030 corresponding to mouse gut metagenome with ENA study accession number: PRJEB37062 and ENA sample accession number: ERS12561829 for biotransformation under anaerobic condition. The drug concentrations were measured over 9 timepoints collected between 0 and 24 hours of incubation by liquid-chromatography-coupled mass spectrometry (LC–MS); conditions: 2 µM
[2] = as §1, with “Z-023” for “Z-030”, “to” for “to mouse gut”, “ERS12561822” for “ERS12561829”; conditions: 2 µM
[3] = as §1, with “Z-021” for “Z-030”, “to” for “to mouse gut”, “ERS12561820” for “ERS12561829”; conditions: 2 µM
[4] = as §1, with “Z-016” for “Z-030”, “ERS12561815” for “ERS12561829”; conditions: 2 µM
[5] = as §1, with “Z-007” for “Z-030”, “rat” for “mouse”, “ERS12561807” for “ERS12561829”; conditions: 2 µM
[6] = as §1, with “Z-001” for “Z-030”, “ERS12561801” for “ERS12561829”; conditions: 2 µM
[7] = as §1, with “WLS-077” for “Z-030”, “human” for “mouse”, “ERS12561750” for “ERS12561829”; conditions: 2 µM
[8] = as §1, with “WLS-069” for “Z-030”, “human” for “mouse”, “ERS12561748” for “ERS12561829”; conditions: 2 µM
[9] = as §1, with “WLS-007” for “Z-030”, “human” for “mouse”, “ERS12561742” for “ERS12561829”; conditions: 2 µM
[10] = human gut metagenome, 24 h, 2 µM
[11] = human gut metagenome, 24 h, 2 µM; remark: listed apart in the source
[12] = human gut metagenome, 24 h, 2 µM; remark: listed apart in the source
[13] = human gut metagenome, 24 h, 2 µM; remark: listed apart in the source
[14] = human gut metagenome, 24 h, 2 µM; remark: listed apart in the source
[15] = human gut metagenome, 24 h, 2 µM; remark: listed apart in the source
[16] = human gut metagenome, 24 h, 2 µM; remark: listed apart in the source
[17] = human gut metagenome, 24 h, 2 µM; remark: listed apart in the source
[18] = human gut metagenome, 24 h, 2 µM; remark: listed apart in the source
[19] = human gut metagenome, 24 h, 2 µM; remark: listed apart in the source
[20] = human gut metagenome, 24 h, 2 µM; remark: listed apart in the source
Note: call rule not given here.

Row | SMILES | Bacterial Biotransformation [1] | Bacterial Biotransformation [2] | Bacterial Biotransformation [3] | Bacterial Biotransformation [4] | Bacterial Biotransformation [5] | Bacterial Biotransformation [6] | Bacterial Biotransformation [7] | Bacterial Biotransformation [8] | Bacterial Biotransformation [9] | Bacterial Biotransformation [10] | Bacterial Biotransformation [11] | Bacterial Biotransformation [12] | Bacterial Biotransformation [13] | Bacterial Biotransformation [14] | Bacterial Biotransformation [15] | Bacterial Biotransformation [16] | Bacterial Biotransformation [17] | Bacterial Biotransformation [18] | Bacterial Biotransformation [19] | Bacterial Biotransformation [20]
1 | CCOC(=O)C1=C[C@]2(CC)CCCN3CCc4c(n1c1ccccc41)[C@@H]32 [VINPOCETINE] | Compound NOT metabolized | Compound metabolized | Compound NOT metabolized | Compound metabolized | Compound NOT metabolized | Compound NOT metabolized | Compound metabolized | Compound metabolized | Compound NOT metabolized | Compound metabolized | Compound metabolized | Compound metabolized | Compound metabolized | Compound metabolized | Compound metabolized | Compound metabolized | Compound metabolized | Compound metabolized | Compound NOT metabolized | Compound metabolized
2 | C[C@@H](c1ncncc1F)[C@](O)(Cn1cncn1)c1ccc(F)cc1F [VORICONAZOLE] | Compound NOT metabolized | Compound metabolized | Compound NOT metabolized | Compound metabolized | Compound NOT metabolized | Compound NOT metabolized | Compound metabolized | Compound metabolized | Compound metabolized | Compound metabolized | Compound metabolized | Compound metabolized | Compound metabolized | Compound metabolized | Compound metabolized | Compound metabolized | Compound metabolized | Compound metabolized | Compound metabolized | Compound metabolized
3 | CCN(C(C)=O)c1cccc(-c2ccnc3c(C#N)cnn23)c1 [ZALEPLON] | Compound NOT metabolized | Compound metabolized | Compound NOT metabolized | Compound metabolized | Compound NOT metabolized | Compound NOT metabolized | Compound metabolized | Compound metabolized | Compound metabolized | Compound metabolized | Compound metabolized | Compound metabolized | Compound metabolized | Compound metabolized | Compound metabolized | Compound metabolized | Compound metabolized | Compound metabolized | Compound NOT metabolized | Compound metabolized
